In ChEMBL document CHEMBL4118135, “Optimized allosteric inhibition of engineered protein tyrosine phosphatases with an expanded palette of biarsenical small molecules” (Bioorg Med Chem, 2018) one finds Activity, inhibition and IC50 data, which are given here for 2 molecules.

Usually IC50 stands for the point on the concentration scale where inhibition reaches its midpoint.

Experiment [1] deals with T1, Tyrosine-protein phosphatase non-receptor type 1 (Homo sapiens) (UniProt P18031).
T1 sequence (whole entry): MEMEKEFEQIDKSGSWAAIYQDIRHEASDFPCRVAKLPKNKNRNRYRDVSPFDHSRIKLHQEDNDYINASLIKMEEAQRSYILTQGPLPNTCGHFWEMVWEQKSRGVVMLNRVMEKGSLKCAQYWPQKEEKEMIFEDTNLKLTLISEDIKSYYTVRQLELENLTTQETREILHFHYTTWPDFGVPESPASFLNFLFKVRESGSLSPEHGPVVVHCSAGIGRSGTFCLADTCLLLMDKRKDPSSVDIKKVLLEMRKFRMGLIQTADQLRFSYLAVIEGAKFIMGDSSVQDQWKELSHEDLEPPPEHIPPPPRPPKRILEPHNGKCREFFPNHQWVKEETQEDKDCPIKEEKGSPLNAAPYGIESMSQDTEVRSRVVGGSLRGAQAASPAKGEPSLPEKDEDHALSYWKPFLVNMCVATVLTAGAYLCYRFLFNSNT
In words: Binding affinity to His6-tagged human wild-type PTP1B catalytic domain overexpressed in Escherichia coli BL21(DE3) cells at 100 uM using pNPP as substrate after 90 mins by SDS-PAGE analysis.

For experiment [2], the system named is T2, Tyrosine-protein phosphatase non-receptor type 1 (Homo sapiens), P18031 [P87C,A122C].
T2 sequence (whole entry): T1 sequence (whole entry) with P87C, A122C
Briefly: Inhibition of allosterically sensitized His6-tagged human PTP1B catalytic domain P87C/A122C mutant at 500 nM using DADEpYLIPQQG as substrate incubated for 90 mins by continuous phosphatase activity assay.

The target in experiment [3] is Tyrosine-protein phosphatase non-receptor type 1 (Homo sapiens, UniProt P18031, A122C/P87C). Briefly: Inhibition of allosterically sensitized His6-tagged human PTP1B catalytic domain P87C/A122C mutant using pNPP as substrate incubated for 90 mins by quenched phosphatase activity assay.
Chain of Tyrosine-protein phosphatase non-receptor type 1 (P18031 whole entry P87C/A122C, the tested form may be a part): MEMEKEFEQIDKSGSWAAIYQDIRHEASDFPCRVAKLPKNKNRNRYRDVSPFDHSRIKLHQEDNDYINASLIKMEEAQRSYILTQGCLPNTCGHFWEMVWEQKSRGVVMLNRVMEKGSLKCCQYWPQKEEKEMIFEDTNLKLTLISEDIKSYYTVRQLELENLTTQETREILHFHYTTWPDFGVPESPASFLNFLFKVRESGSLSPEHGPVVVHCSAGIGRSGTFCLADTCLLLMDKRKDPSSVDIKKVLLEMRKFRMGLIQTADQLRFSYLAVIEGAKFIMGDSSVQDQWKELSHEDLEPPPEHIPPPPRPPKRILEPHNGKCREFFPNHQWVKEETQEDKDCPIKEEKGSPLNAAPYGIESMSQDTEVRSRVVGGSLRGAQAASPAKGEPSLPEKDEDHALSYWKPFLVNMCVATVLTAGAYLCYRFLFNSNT
For experiment [4], the target named is T1, Tyrosine-protein phosphatase non-receptor type 1 (Homo sapiens). Briefly: Inhibition of His6-tagged human wild-type PTP1B catalytic domain at 500 nM using DADEpYLIPQQG as substrate incubated for 90 mins by continuous phosphatase activity assay.
The test system of experiment [5] is T3, Tyrosine-protein phosphatase non-receptor type 7 (Homo sapiens), P35236 [P171C,V205C].
T3 sequence (whole entry): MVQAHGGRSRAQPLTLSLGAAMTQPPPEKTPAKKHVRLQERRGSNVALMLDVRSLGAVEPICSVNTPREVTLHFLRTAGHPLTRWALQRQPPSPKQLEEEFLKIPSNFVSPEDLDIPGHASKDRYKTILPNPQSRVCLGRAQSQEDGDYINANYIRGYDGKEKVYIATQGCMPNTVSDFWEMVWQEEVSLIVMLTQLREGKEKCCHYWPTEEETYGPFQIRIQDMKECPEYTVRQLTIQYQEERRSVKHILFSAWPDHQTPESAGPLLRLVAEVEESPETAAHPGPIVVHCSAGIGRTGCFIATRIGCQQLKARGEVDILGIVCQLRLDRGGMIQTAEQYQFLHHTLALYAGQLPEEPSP
In words: Binding affinity to allosterically sensitized mutant form of His6-tagged human HePTP catalytic domain overexpressed in Escherichia coli BL21(DE3) cells at 50 to 100 uM after 90 mins by SDS-PAGE analysis.

For experiment [6] the test system is unchanged. Briefly: Binding affinity to allosterically sensitized mutant form of His6-tagged human HePTP catalytic domain overexpressed in Escherichia coli crude cell lysate at 100 uM after 90 mins by SDS-PAGE analysis.
The test system is the same in experiment [7]. Briefly: Binding affinity to allosterically sensitized mutant form of His6-tagged human HePTP catalytic domain overexpressed in Escherichia coli crude cell lysate at 25 to 100 uM using pNPP as substrate after 90 mins by SDS-PAGE and LC-MS/MS method.
Experiment [8] deals with T4, Tyrosine-protein phosphatase non-receptor type 11 (Homo sapiens) (UniProt Q06124).
T4 sequence (whole entry): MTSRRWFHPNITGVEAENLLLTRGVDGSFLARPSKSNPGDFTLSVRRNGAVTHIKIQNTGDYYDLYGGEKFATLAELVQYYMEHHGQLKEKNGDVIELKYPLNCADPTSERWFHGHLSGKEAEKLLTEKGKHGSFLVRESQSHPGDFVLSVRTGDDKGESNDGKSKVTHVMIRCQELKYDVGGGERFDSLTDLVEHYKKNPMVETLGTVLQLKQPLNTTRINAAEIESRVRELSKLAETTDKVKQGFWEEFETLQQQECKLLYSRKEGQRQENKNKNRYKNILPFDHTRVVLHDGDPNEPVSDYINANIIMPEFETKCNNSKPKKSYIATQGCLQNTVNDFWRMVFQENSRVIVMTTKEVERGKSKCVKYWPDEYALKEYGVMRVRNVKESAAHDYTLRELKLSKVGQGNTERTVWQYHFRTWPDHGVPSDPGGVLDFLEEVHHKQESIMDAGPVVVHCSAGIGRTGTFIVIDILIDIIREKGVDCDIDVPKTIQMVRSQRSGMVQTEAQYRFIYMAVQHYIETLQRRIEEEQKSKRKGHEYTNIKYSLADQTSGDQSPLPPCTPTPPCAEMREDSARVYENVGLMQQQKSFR
Briefly: Inhibition of allosterically sensitized mutant form of His6-tagged human SHP2 catalytic domain using pNPP as substrate after 90 mins by quenched phosphatase activity assay.

In experiment [9] the target is Tyrosine-protein phosphatase non-receptor type 7 (Homo sapiens, UniProt P35236, P171C/V205C). In words: Inhibition of allosterically sensitized mutant form of His6-tagged human HePTP catalytic domain overexpressed in Escherichia coli crude cell lysate using pNPP as substrate incubated for 90 mins by quenched phosphatase activity assay.
In experiment [10] the test system is T3, Tyrosine-protein phosphatase non-receptor type 7 (Homo sapiens), P35236 [P171C,V205C]. Briefly: Inhibition of allosterically sensitized mutant form of His6-tagged human HePTP catalytic domain using pNPP as substrate incubated for 90 mins by quenched phosphatase activity assay.
The test system of experiment [11] is Tyrosine-protein phosphatase non-receptor type 7 (Homo sapiens), P35236 [UNDEFINED MUTATION]. In words: Inhibition of Inhibition of allosterically sensitized mutant form of His6-tagged […] human HePTP catalytic domain overexpressed in Escherichia coli BL21(DE3) cells at 25 uM using pNPP as substrate incubated for 90 mins by quenched phosphatase activity assay.
Chain of Tyrosine-protein phosphatase non-receptor type 7 (Homo sapiens), P35236 [UNDEFINED MUTATION] (P35236 whole entry, looked up, stated change not applied, the tested form may be a part): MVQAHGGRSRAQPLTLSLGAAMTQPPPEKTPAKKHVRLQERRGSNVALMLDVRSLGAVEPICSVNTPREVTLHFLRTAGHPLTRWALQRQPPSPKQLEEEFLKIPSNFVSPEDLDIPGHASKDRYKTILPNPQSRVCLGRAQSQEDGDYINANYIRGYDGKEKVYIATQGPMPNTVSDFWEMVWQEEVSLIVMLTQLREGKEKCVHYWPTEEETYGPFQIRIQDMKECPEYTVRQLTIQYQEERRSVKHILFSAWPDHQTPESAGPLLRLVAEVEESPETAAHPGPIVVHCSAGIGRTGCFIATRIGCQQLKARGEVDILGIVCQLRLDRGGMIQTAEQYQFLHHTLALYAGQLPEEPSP

Substitutions are numbered along the chain they refer to. The source made the active and inactive calls. The rule behind the calls is not given here.

With `CC1(C)C(/C=C/C=C2/N(CCCCS(=O)(=O)O)c3ccc([As]4SCCS4)cc3C2(C)C)=[N+](CCCCS(=O)(=O)O)c2ccc([As]3SCCS3)cc21`, in experiment [1], the result was inactive. Besides, the inhibition result in [2] was “Active”. In addition, in experiment [3], the IC50 was found to be 125 nM. In experiment [4], the inhibition entry was “inactive”.
Turning to `O=C(O)c1ccccc1-c1c2ccc(=O)c([As]3SCCS3)c-2oc2c([As]3SCCS3)c(O)ccc12`, the result in experiment [5] and in experiment [7] was Active. The outcome in experiment [6] was inactive. For the same molecule, the inhibition result in experiment [8] and in [10] was “Dose-dependent effect” each time. Also, in experiment [9], the IC50 was determined as 250 nM. Moreover, in experiment [11], the inhibition entry is “Active”.
